In US10988478B1, “Pyrazolo[1,5a]pyrimidine derivatives as IRAK4 modulators” (Genentech, Inc., priority 2015, dated 2021):

Biological target: human IRAK4 (Homo sapiens (Human), UniProt Q9NWZ3)
Experiment: IRAK4 kinase inhibition, Transcreener fluorescence polarization ADP assay
Type: biochemical
Details: recombinant full-length His6-IRAK4; 125 uM ATP; 90 min; Ki computed using ATP Km 642 uM
Description: Compounds were assayed for inhibition of human IRAK4 and IRAK1 catalytic activity using recombinant enzyme produced from insect cells. Full-length IRAK4 protein, carrying an N-terminal His6-Tag, was obtained from Life Technologies (Carlsbad, Calif., USA). The IRAK1 construct was produced internally and was comprised of IRAK1 residues Arg194 to Ser712, preceded by an NH2-terminal His6 tag and the coding sequence for glutathione-S-transferase.

human IRAK4, sequence (Q9NWZ3 whole entry): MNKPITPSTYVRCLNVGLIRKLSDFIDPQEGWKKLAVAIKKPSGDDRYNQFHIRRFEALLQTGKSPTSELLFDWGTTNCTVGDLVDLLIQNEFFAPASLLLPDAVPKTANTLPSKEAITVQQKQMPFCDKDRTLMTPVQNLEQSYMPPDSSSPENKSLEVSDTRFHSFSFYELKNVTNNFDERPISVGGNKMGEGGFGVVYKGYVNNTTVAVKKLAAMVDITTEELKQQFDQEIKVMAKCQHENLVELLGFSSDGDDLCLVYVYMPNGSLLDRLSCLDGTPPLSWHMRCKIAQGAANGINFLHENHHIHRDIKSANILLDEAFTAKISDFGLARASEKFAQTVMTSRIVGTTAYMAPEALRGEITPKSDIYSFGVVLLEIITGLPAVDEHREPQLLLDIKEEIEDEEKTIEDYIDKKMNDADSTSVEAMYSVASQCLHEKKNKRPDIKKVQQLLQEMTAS

| Compound | Ki [nM] |
| --- | --- |
| O=C(Nc1cc2c(cc1N1CCOCC1)S(=O)(=O)CCN2)c1cnn2cccnc12 [Example 402, N-(7-Morpholino-1,1-dioxido-3,4-dihydro-2H-benzo[b][1,4]thiazin-6-yl)pyrazolo[1,5-a]pyrimidine-3-carboxamide] | 19 |
| CC1(C)CS(=O)(=O)c2cc(N3CCOCC3)c(NC(=O)c3cnn4cccnc34)cc2N1 [Example 403, N-(3,3-Dimethyl-7-morpholino-1,1-dioxido-3,4-dihydro-2H-benzo[b][1,4]thiazin-6-yl)pyrazolo[1,5-a]pyrimidine-3-carboxamide] | 680 |
| Cn1cc(-c2cc3c(cc2NC(=O)c2cnn4cccnc24)CC(C)(C)O3)cn1 [Example 404, N-(2,2-Dimethyl-6-(1-methyl-1H-pyrazol-4-yl)-2,3-dihydrobenzofuran-5-yl)pyrazolo[1,5-a]pyrimidine-3-carboxamide] | 64 |
| CC1(C)Cc2cc(NC(=O)c3cnn4cccnc34)c(-c3cncc(C#N)c3)cc2O1 [Example 405, N-(6-(5-Cyanopyridin-3-yl)-2,2-dimethyl-2,3-dihydrobenzofuran-5-yl)pyrazolo[1,5-a]pyrimidine-3-carboxamide] | 520 |
| Cn1ccnc1-c1cc2c(cc1NC(=O)c1cnn3cccnc13)CC(C)(C)O2 [Example 406, N-[2,2-Dimethyl-6-(1-methylimidazol-2-yl)-3H-benzofuran-5-yl]pyrazolo[1,5-a]pyrimidine-3-carboxamide] | 150 |
| CC1(C)Cc2cc(NC(=O)c3cnn4cc(C#N)cnc34)c(N3CCOCC3)cc2O1 [Example 407, 6-Cyano-N-(2,2-dimethyl-6-morpholino-2,3-dihydrobenzofuran-5-yl)pyrazolo[1,5-a]pyrimidine-3-carboxamide] | 6 |
| CC1(C)Cc2cc(NC(=O)c3cnn4cccnc34)c(N3CC[N+](C)(CC(N)=O)CC3)cc2O1 [Example 408, 1-(2-Amino-2-oxoethyl)-4-(2,2-dimethyl-5-(pyrazolo[1,5-a]pyrimidine-3-carboxamido)-2,3-dihydrobenzofuran-6-yl)-1-methylpiperazin-1-ium] | 46 |
| C[C@]1(CO)Cc2cc(NC(=O)c3cnn4cccnc34)c(N3CCC([C@@](C)(O)C(F)(F)F)CC3)cc2O1 [Example 409, N—((R)-2-(hydroxymethyl)-2-methyl-6-(4-((R)-1,1,1-trifluoro-2-hydroxypropan-2-yl)piperidin-1-yl)-2,3-dihydrobenzofuran-5-yl)pyrazolo[1,5-a]pyrimidine-3-carboxamide] | 6.7 |
| C[C@]1(CO)Cc2cc(NC(=O)c3cnn4cccnc34)c(N3CCC([C@](C)(O)C(F)(F)F)CC3)cc2O1 [Example 410, N—((R)-2-(hydroxymethyl)-2-methyl-6-(4-((S)-1,1,1-trifluoro-2-hydroxypropan-2-yl)piperidin-1-yl)-2,3-dihydrobenzofuran-5-yl)pyrazolo[1,5-a]pyrimidine-3-carboxamide] | 6.2 |
| C[C@@]1(CO)Cc2cc(NC(=O)c3cnn4cccnc34)c(N3CCC([C@@](C)(O)C(F)(F)F)CC3)cc2O1 [Example 411, N—((S)-2-(hydroxymethyl)-2-methyl-6-(4-((R)-1,1,1-trifluoro-2-hydroxypropan-2-yl)piperidin-1-yl)-2,3-dihydrobenzofuran-5-yl)pyrazolo[1,5-a]pyrimidine-3-carboxamide] | 7.6 |
| C[C@@]1(CO)Cc2cc(NC(=O)c3cnn4cccnc34)c(N3CCC([C@](C)(O)C(F)(F)F)CC3)cc2O1 [Example 412, N—((S)-2-(hydroxymethyl)-2-methyl-6-(4-((S)-1,1,1-trifluoro-2-hydroxypropan-2-yl)piperidin-1-yl)-2,3-dihydrobenzofuran-5-yl)pyrazolo[1,5-a]pyrimidine-3-carboxamide] | 5.9 |
| C[C@]1(CO)Cc2cc(NC(=O)c3cnn4cccnc34)c(N3C[C@@H]4[C@H](C3)[C@H]4C(N)=O)cc2O1 [Example 413, N-((R)-6-((1R,5S,6R)-6-carbamoyl-3-azabicyclo[3.1.0]hexan-3-yl)-2-(hydroxymethyl)-2-methyl-2,3-dihydrobenzofuran-5-yl)pyrazolo[1,5-a]pyrimidine-3-carboxamide] | 32 |
| C[C@@]1(CO)Cc2cc(NC(=O)c3cnn4cccnc34)c(N3C[C@@H]4[C@H](C3)[C@H]4C(N)=O)cc2O1 [Example 414, N-((S)-6-((1R,5S,6S)-6-carbamoyl-3-azabicyclo[3.1.0]hexan-3-yl)-2-(hydroxymethyl)-2-methyl-2,3-dihydrobenzofuran-5-yl)pyrazolo[1,5-a]pyrimidine-3-carboxamide] | 12 |
| C[C@@]1(CO)Cc2cc(NC(=O)c3cnn4cccnc34)c(N3CCC4(CC3)CNC(=O)C4)cc2O1 [Example 418, (S)-N-(2-(hydroxymethyl)-2-methyl-6-(3-oxo-2,8-diazaspiro[4.5]decan-8-yl)-2,3-dihydrobenzofuran-5-yl)pyrazolo[1,5-a]pyrimidine-3-carboxamide] | 4.8 |
| C[C@@]1(CO)Cc2cc(NC(=O)c3cnn4cccnc34)c(N3Cc4cccnc4C3)cc2O1 [Example 420, (S)-N-(6-(5,7-dihydro-6H-pyrrolo[3,4-b]pyridin-6-yl)-2-(hydroxymethyl)-2-methyl-2,3-dihydrobenzofuran-5-yl)pyrazolo[1,5-a]pyrimidine-3-carboxamide] | 14 |
| C[C@@]1(O)COc2cc(N3CCC([C@](C)(O)C(F)(F)F)CC3)c(NC(=O)c3cnn4cccnc34)cc2C1 [Example 421, N—((S)-3-hydroxy-3-methyl-7-(4-((S)-1,1,1-trifluoro-2-hydroxypropan-2-yl)piperidin-1-yl)chroman-6-yl)pyrazolo[1,5-a]pyrimidine-3-carboxamide] | 100 |
| CC1(O)COc2cc(N3CCC(C(C)(O)C(F)(F)F)CC3)c(NC(=O)c3cnn4cccnc34)cc2C1 (centres unmarked) [Example 423, N-(3-hydroxy-3-methyl-7-(4-(1,1,1-trifluoro-2-hydroxypropan-2-yl)piperidin-1-yl)chroman-6-yl)pyrazolo[1,5-a]pyrimidine-3-carboxamide] | 9.6 |
| C[C@]1(O)COc2cc(N3CCN(CC(N)=O)CC3)c(NC(=O)c3cnn4cccnc34)cc2C1 [Example 424, (R)-N-(7-(4-(2-amino-2-oxoethyl)piperazin-1-yl)-3-hydroxy-3-methylchroman-6-yl)pyrazolo[1,5-a]pyrimidine-3-carboxamide] | 3 |
| C[C@@]1(O)COc2cc(N3CCN(CC(N)=O)CC3)c(NC(=O)c3cnn4cccnc34)cc2C1 [Example 425, (S)-N-(7-(4-(2-amino-2-oxoethyl)piperazin-1-yl)-3-hydroxy-3-methylchroman-6-yl)pyrazolo[1,5-a]pyrimidine-3-carboxamide] | 6 |
| C[C@]1(O)COc2cc(N3CCC(C#N)CC3)c(NC(=O)c3cnn4cccnc34)cc2C1 [Example 426, (R)-N-(7-(4-cyanopiperidin-1-yl)-3-hydroxy-3-methylchroman-6-yl)pyrazolo[1,5-a]pyrimidine-3-carboxamide] | 5 |
| C[C@@]1(O)COc2cc(N3CCC(C#N)CC3)c(NC(=O)c3cnn4cccnc34)cc2C1 [Example 427, (S)-N-(7-(4-cyanopiperidin-1-yl)-3-hydroxy-3-methylchroman-6-yl)pyrazolo[1,5-a]pyrimidine-3-carboxamide] | 38 |
| C[C@]1(O)COc2cc(N3CCC(n4ccnc4)CC3)c(NC(=O)c3cnn4cccnc34)cc2C1 [Example 428, (R)-N-(7-(4-(1H-imidazol-1-yl)piperidin-1-yl)-3-hydroxy-3-methylchroman-6-yl)pyrazolo[1,5-a]pyrimidine-3-carboxamide] | 75 |
| C[C@@]1(O)COc2cc(N3CCC(n4ccnc4)CC3)c(NC(=O)c3cnn4cccnc34)cc2C1 [Example 429, (S)-N-(7-(4-(1H-imidazol-1-yl)piperidin-1-yl)-3-hydroxy-3-methylchroman-6-yl)pyrazolo[1,5-a]pyrimidine-3-carboxamide] | 12 |
| Cn1cc(COc2cc3c(cc2NC(=O)c2cnn4cccnc24)C[C@](C)(O)CO3)cn1 [Example 431, (S)-N-(3-hydroxy-3-methyl-7-((1-methyl-1H-pyrazol-4-yl)methoxy)chroman-6-yl)pyrazolo[1,5-a]pyrimidine-3-carboxamide] | 20 |
| CC(C)(O)CN1CCN(c2cc3c(cc2NC(=O)c2cnn4cccnc24)CC(C)(C)O3)CC1 [Example 434, N-(6-(4-(2-hydroxy-2-methylpropyl)piperazin-1-yl)-2,2-dimethyl-2,3-dihydrobenzofuran-5-yl)pyrazolo[1,5-a]pyrimidine-3-carboxamide] | 22 |
| CCC(O)(CC)CN1CCN(c2cc3c(cc2NC(=O)c2cnn4cccnc24)CC(C)(C)O3)CC1 [Example 435, N-(6-(4-(2-Ethyl-2-hydroxybutyl)piperazin-1-yl)-2,2-dimethyl-2,3-dihydrobenzofuran-5-yl)pyrazolo[1,5-a]pyrimidine-3-carboxamide] | 53 |
| CN(C)C(=O)[C@]1(C)Cc2cc(NC(=O)c3cnn4cccnc34)c(N3CCOCC3)cc2O1 [Example 438, (S)—N-(2-(dimethylcarbamoyl)-2-methyl-6-morpholino-2,3-dihydrobenzofuran-5-yl)pyrazolo[1,5-a]pyrimidine-3-carboxamide] | 55 |
| CN(C)C(=O)[C@@]1(C)Cc2cc(NC(=O)c3cnn4cccnc34)c(N3CCOCC3)cc2O1 [Example 439, (R)—N-(2-(dimethylcarbamoyl)-2-methyl-6-morpholino-2,3-dihydrobenzofuran-5-yl)pyrazolo[1,5-a]pyrimidine-3-carboxamide] | 34 |
| CC1(C)Cc2cc(NC(=O)c3cnn4cccnc34)c(N3CCN(CC(=O)NCC4CCCO4)CC3)cc2O1 (centres unmarked) [Example 440, N-(2,2-dimethyl-6-(4-(2-oxo-2-(((tetrahydrofuran-2-yl)methyl)amino)ethyl)piperazin-1-yl)-2,3-dihydrobenzofuran-5-yl)pyrazolo[1,5-a]pyrimidine-3-carboxamide] | 53 |
